Measurements as given in patent US20220211877A1, “COMPOUND FOR INTRAOPERATIVE MOLECULAR BIOIMAGING, METHOD OF MAKING THE SAME, USE THEREOF IN INTRAOPERATIVE MOLECULAR BIOIMAGING AND SURGICAL METHOD COMPRISING INTRAOPERATIVE MOLECULAR BIOIMAGING” (Klinikum rechts der lsar der Techischen Universität München, priority 2018, published 2022).
Where a SMILES comes first, the peptide text is derived from it. Side-chain parts run from the residue outwards. [ ]: non-standard residue; d: D form. The star is where a group is joined. IRDye800CW = CC1(C)C(/C=C/C2=C(Oc3ccc(S(=O)(=O)O)cc3)C(=C/C=C3/N(CCCCS(=O)(=O)O)c4ccc(S(=O)(=O)O)cc4C3(C)C)/CCC2)=[N+](CCCCCC(=O)*)c2ccc(S(=O)(=O)[O-])cc21; NMeK = CN[C@@H](CCCCN)C(=O)O; Ahx = NCCCCCC(=O)O

Columns and labels:
[1] = biodistribution by fluorescence intensity in HNSCC PDX mice
Method: Relying on fluorescence intensity measurements, the distribution and accumulation of FRX103 in the organism was determined over the time period shown.

[2] = biodistribution and nonspecific binding in control animals (control TX, sham TX, unoperated); details: for renal clearance: 6 h after injection
Method: Similarly, healthy oral epithelium was transplanted for control experiments.
Control experiments were performed with sham operations and transplantation with healthy control tissue, which were imaged with FRX110 and FRX109 as the control tracer.
The specificity of the binding was investigated in the in vivo model with the control tracer FRX109. FRX109 was visualized in mice with a sham graft (sham TX) of human carcinoma tissue (no tissue was transplanted).

αvβ8 = αvβ8 (Homo sapiens, UniProt P06756+P26012); experiment: solid-phase integrin binding assay; details: n = 2
α5β1 = α5β1 (Homo sapiens, UniProt P05556+P08648); experiment: solid-phase integrin binding assay; details: n = 2
αIIbβ3 = αIIbβ3 (Homo sapiens, UniProt P05106+P08514); experiment: solid-phase integrin binding assay; details: n = 2
Method: (§1) The integrin binding affinity and selectivity profile of the compounds was determined by a solid-phase binding assay as previously described.^48

αvβ5 = αvβ5 (Homo sapiens, UniProt P06756+P18084); experiment: solid-phase integrin binding assay; details: n = 2
Method: as §1

αvβ6 = αvβ6 (Homo sapiens, UniProt P06756+P18564); experiment: solid-phase integrin binding assay; details: n = 2
αvβ3 = αvβ3 (Homo sapiens, UniProt P05106+P06756); experiment: solid-phase integrin binding assay; details: n = 2
invasive HNSCC tissue = experiment: molecular bioimaging in HNSCC PDX mouse model; format: in vivo, NOD/SCID mice
Method: An orthotopic HNSCC PDX (head and neck squamous cell carcinoma patient derived xenotransplant) mouse model was developed that allows the analysis of invasive, orthotropic human carcinoma tissue. HNSCC tissue samples were transplanted into the neck area of NOD/SCID mice. This provides epithelial derived carcinoma tissue in a mesenchymal tissue context to mimic the epithelial-mesenchymal interface between invasive carcinoma tissue and stroma. […]
Bioimgaing was performed relying on equipment described in ^42 using a 750 nm CW laser diode (BWF2-750-0, B & W Tek, Newark, Del., USA) with a maximum power of 300 mW was used to excite the fluorophores. […] The laser power was measured at a working distance of 15 cm at 85 mW/cm 2, which is lower than the maximum permissible exposure according to the standard of the American National Standards Institute (ANSI). A short-pass filter (E700SP, Chroma Technology, Rockingham, Vt., USA) was used to eliminate component of the field illumination NIRF signal to preclude interference between the fluorescence detection field and the field illumination light path (F1). […]
The measurements of the average fluorescence intensity/pixels were made in two regions of interests (ROIs). […]
The quotient ROI1/ROI2 of the average fluorescence intensity/pixel is given as tumor tissue to background ratio (TBR). […]

OVMZ6 cells = experiment: cell binding experiment, fluorescence microscopy; format: cell-based, human; details: fixed OVMZ6 cells (low αvβ6, high αvβ3), 10 μM
Description: (§2) Human OSCC cell lines HN was purchased from the German Collection of Microorganisms and Cell Cultures, Braunschweig, Germany (DSMZ no. ACC 417 (HN) The HN cell line was established from a cervical lymph node metastasis of an invasive squamous cell carcinoma of the soft palate. The metastasis occurred 7 years after treatment of the primary tumour and metastasized to the lung and brain. ^49 As control cells, we used the human ovarian cancer cell line OVMZ6 with low integrin avb6 and high integrin αvβ3 expression. ^50 All cells were cultivated in Dulbecco's Modified Eagle's Medium (DMEM) (Sigma-Aldrich, St. Louis, Mo., USA), supplemented with 10% (v/v) fetal calf serum (FCS) (Gibco, Lifelechnologies™, Carlsbad, Calif., USA).
(§3) HN and OVMZ6 cells were cultivated for 24 h on fibronectin-coated microchamber slides at a density of 25×10^3/well, thereafter fixed in 2% (w/v) PFA for 15 min at r.t. and washed in PBS. The Cy5.5-conjugated compound OM_1231, dissolved in PBS, 5% (v/v) dimethyl sulfoxide (DMSO), was applied at a final concentration of 10 μM for 1 h at r.t., followed by 3 washes in PBS. […] As control peptide served the non-binding cycl(R^betaADfK) labelled via lysine side-chain NH2 group with Cy5.5 fluorescent dye (code OM_1224). After the incubation period, cells were washed 6 times in PBS and slides mounted. Fluorescence signal intensity was detected by the microscope Zeiss LSM 700 (Zeiss) as described above. Images were merged by applying for the fluorescence image the LUT “blue to red”: low intensity: blue; medium intensity: green; and high intensity: red.

HN cells = experiment: cell binding experiment, fluorescence microscopy; format: cell-based, human; details: for fluorescence signal intensity on cells: fixed HN cells, 10 μM, 1 h at r.t.
Description: as §2, §3

[3] = 0-24 h post injectionem, FIG. 5b

Sequence of αvβ8 (P06756 31-889 limits assumed): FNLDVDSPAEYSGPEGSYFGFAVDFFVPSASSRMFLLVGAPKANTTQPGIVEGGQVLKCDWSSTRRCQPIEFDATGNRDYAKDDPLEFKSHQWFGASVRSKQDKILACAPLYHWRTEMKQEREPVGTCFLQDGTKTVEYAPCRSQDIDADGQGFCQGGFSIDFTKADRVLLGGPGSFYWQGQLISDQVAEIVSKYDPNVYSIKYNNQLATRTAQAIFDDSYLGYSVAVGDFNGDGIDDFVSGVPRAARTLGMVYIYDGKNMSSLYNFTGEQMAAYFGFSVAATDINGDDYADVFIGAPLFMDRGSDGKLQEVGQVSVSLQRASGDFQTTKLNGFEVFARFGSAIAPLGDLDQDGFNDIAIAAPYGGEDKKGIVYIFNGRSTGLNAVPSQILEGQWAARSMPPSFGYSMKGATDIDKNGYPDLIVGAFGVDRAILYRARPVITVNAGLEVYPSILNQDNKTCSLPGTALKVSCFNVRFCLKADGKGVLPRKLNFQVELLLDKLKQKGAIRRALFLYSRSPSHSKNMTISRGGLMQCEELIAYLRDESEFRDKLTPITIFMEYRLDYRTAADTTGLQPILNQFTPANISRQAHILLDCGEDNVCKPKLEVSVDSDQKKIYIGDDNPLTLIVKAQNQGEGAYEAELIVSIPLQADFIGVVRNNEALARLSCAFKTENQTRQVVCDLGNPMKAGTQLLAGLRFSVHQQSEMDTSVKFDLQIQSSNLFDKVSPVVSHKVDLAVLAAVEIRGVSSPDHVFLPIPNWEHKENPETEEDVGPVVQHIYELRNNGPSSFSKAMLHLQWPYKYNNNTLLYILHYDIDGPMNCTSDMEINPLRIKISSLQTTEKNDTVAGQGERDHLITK
Sequence of αvβ8 (P06756 891-992 partner limits assumed): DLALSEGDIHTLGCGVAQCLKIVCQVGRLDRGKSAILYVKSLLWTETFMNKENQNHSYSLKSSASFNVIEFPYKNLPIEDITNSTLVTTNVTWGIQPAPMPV
Sequence of αvβ8 (P26012 43-684 limits assumed): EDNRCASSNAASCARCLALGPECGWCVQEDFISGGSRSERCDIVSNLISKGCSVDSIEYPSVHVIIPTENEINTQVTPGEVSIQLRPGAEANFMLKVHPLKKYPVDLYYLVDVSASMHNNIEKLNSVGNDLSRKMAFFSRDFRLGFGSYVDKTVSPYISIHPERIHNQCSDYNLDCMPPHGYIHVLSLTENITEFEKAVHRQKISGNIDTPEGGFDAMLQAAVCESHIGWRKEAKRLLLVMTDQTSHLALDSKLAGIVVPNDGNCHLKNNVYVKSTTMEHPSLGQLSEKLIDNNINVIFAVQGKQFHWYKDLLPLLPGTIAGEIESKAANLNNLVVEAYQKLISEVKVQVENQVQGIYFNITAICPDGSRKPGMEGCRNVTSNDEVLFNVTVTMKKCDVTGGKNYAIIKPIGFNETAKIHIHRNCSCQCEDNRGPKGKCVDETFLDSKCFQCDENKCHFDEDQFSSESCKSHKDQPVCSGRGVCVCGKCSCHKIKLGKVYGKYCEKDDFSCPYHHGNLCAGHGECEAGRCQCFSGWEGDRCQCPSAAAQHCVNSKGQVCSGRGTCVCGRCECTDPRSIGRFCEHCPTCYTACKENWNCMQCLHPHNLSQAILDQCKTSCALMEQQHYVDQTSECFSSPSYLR
Sequence of αvβ6 (P06756 31-889 limits assumed): as the sequence (P06756 31-889 limits assumed) above
Sequence of αvβ6 (P06756 891-992 partner limits assumed): as the sequence (P06756 891-992 partner limits assumed) above
Sequence of αvβ6 (P18564 22-707 limits assumed): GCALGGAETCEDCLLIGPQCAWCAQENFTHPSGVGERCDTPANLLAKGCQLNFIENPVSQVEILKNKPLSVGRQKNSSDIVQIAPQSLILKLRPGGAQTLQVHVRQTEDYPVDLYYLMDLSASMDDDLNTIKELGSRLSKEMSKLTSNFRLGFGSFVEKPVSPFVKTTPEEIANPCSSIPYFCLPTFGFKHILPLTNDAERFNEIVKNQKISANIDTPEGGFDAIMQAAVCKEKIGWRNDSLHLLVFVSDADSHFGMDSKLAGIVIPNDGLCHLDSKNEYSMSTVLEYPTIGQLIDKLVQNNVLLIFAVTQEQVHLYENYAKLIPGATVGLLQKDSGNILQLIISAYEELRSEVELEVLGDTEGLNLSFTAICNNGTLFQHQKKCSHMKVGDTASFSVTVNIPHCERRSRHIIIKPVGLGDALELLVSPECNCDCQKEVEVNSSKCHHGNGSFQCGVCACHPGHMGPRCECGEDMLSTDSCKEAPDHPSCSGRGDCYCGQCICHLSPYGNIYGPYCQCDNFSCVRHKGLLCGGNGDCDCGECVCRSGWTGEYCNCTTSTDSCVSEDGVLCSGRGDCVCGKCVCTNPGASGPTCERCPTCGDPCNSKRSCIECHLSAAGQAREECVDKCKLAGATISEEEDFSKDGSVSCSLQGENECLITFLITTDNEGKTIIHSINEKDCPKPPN
Sequence of αvβ3 (P06756 31-889 limits assumed): as the sequence (P06756 31-889 limits assumed) above
Sequence of αvβ3 (P06756 891-1048 partner limits assumed): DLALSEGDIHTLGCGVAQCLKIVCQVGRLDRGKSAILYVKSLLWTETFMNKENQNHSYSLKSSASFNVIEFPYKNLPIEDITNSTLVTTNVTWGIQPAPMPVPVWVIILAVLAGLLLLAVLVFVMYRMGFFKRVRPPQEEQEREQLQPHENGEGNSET
Sequence of αvβ3 (P05106 27-788): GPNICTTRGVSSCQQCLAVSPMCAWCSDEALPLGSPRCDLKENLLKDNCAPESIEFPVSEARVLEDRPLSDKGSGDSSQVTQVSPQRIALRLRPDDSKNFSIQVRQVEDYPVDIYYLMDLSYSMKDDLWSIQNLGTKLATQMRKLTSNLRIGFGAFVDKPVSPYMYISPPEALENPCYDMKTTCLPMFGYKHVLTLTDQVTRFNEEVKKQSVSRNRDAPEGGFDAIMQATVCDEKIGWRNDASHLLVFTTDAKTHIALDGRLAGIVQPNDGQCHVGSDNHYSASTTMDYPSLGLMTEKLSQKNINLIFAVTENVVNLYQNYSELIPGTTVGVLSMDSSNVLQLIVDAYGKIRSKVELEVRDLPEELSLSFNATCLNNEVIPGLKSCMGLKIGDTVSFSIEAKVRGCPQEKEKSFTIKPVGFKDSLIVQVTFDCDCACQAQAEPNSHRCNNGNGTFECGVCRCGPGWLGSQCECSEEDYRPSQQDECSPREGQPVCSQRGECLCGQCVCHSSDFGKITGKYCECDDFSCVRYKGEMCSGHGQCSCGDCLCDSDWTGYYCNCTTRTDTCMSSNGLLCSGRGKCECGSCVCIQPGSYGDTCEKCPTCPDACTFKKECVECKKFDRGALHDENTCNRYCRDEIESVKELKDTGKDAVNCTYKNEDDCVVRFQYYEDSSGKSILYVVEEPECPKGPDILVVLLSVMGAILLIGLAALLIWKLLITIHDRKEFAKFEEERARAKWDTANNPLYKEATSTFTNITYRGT
Sequence of αvβ5 (P06756 31-889 limits assumed): as the sequence (P06756 31-889 limits assumed) above
Sequence of αvβ5 (P06756 891-1048 partner limits assumed): as the sequence (P06756 891-1048 partner limits assumed) above
Sequence of αvβ5 (P18084 24-799): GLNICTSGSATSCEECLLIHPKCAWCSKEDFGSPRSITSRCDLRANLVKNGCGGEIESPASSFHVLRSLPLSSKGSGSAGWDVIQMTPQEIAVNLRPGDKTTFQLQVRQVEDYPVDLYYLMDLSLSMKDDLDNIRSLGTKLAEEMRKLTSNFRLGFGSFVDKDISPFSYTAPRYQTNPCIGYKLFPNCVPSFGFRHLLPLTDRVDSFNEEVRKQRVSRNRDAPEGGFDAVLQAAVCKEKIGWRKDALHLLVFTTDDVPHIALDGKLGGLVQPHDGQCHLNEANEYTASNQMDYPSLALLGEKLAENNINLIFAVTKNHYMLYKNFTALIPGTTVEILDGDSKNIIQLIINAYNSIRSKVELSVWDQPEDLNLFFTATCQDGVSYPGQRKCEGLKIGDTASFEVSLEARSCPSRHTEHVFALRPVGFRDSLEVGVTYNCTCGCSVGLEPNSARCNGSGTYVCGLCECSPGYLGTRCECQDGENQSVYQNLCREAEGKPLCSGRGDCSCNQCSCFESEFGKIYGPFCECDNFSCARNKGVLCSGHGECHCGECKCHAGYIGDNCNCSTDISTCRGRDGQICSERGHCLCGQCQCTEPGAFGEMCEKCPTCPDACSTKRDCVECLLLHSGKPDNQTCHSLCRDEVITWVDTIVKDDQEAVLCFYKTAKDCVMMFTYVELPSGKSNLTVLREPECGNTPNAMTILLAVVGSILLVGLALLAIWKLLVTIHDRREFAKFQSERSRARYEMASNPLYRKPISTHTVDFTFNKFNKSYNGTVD

Compound | IC50 (αvβ8) [nM] | IC50 (α5β1) [nM] | IC50 (αvβ5) [nM] | IC50 (αvβ6) [nM] | IC50 (αvβ3) [nM] | renal clearance ([2]; FIG. 5c) | fluorescence signal intensity on cells (HN cells) | further results
CC(C)C[C@@H]1NC(=O)[C@H](CC(=O)O)NC(=O)CNC(=O)[C@H](CCCNC(=N)N)NC(=O)[C@H](Cc2ccccc2)NC(=O)[C@H](CCCCNC(=O)CCCCCNC(=O)CCCCC[N+]2=C(/C=C/C3=CC(=C/C=C4/N(C)c5ccc6ccccc6c5C4(C)C)/CCC3)C(C)(C)c3c2ccc2ccccc32)N(C)C(=O)[C@H]2CCCN2C(=O)[C@H](Cc2ccccc2)NC(=O)[C@H](C)NC1=O [FRX103, cyc(FRGDLAFp(NMe)K(Ahx-Cy7.5))] |  |  |  |  |  |  |  | time p.i. of best ratio between specific signal and background signal ([1]; i.v., HNSCC PDX mice): 24 h; accumulation in the area of carcinoma tissue ([1]; i.v., up to 24 h p.i., FIG. 5a): constant accumulation; elimination after 24 h ([1]; mouse, in vivo, iv): does not show any elimination; nonspecific accumulation in the area of transplantation ([2]; control TX (healthy epithelial grafting)): no nonspecific accumulation; signal in liver and pancreas ([2]; mouse, in vivo): persistent signal
CC(C)C[C@@H]1NC(=O)[C@H](CC(=O)O)NC(=O)[C@H](C)NC(=O)[C@H](CCCNC(=N)N)NC(=O)[C@H](Cc2ccccc2)NC(=O)[C@H](CCCCNC(=O)CCCCCNC(=O)CCCCC[N+]2=C(/C=C/C3=C(Oc4ccc(S(=O)(=O)O)cc4)C(=C/C=C4/N(CCCCS(=O)(=O)O)c5ccc(S(=O)(=O)O)cc5C4(C)C)/CCC3)C(C)(C)c3cc(S(=O)(=O)[O-])ccc32)N(C)C(=O)[C@H]2CCCN2C(=O)[C@H](Cc2ccccc2)NC(=O)[C@H](C)NC1=O [FRX109, cyc(FRADLAFp(NMe)K(Ahx-IRDye ® 800CW))] (cyclo(FRADLAF[dP][NMeK]([Ahx-IRDye800CW]))) | > 4000 | > 1000 | > 10000 | 122 ± 12 | > 10000 | good renal clearance |  | IC50 (αIIbβ3): > 1000 nM
CC(C)C[C@@H]1NC(=O)[C@H](CC(=O)O)NC(=O)CNC(=O)[C@H](CCCNC(=N)N)NC(=O)[C@H](Cc2ccccc2)NC(=O)[C@H](CCCCNC(=O)CCCCCNC(=O)CCCCC[N+]2=C(/C=C/C3=C(Oc4ccc(S(=O)(=O)O)cc4)C(=C/C=C4/N(CCCCS(=O)(=O)O)c5ccc(S(=O)(=O)O)cc5C4(C)C)/CCC3)C(C)(C)c3cc(S(=O)(=O)[O-])ccc32)N(C)C(=O)[C@H]2CCCN2C(=O)[C@H](Cc2ccccc2)NC(=O)[C@H](C)NC1=O [FRX110, cyc(FRGDLAFp(NMe)K(Ahx-IRDye ® 800CW))] | 129 ± 36 | 37 ± 6 | > 10000 | 2.2 ± 0.2 | 408 ± 61 | good renal clearance |  | binding to invasive growing carcinoma xenotransplants (invasive HNSCC tissue; 1st to 12th week p. TX): specific binding; tissue to background (TBR) ratio (invasive HNSCC tissue; 5th week p. TX, i.v. tail vein, FIG. 4a): high; TBR [1, 3]: 1.0; unspecific accumulation or binding [1, 3]: does not reveal unspecific accumulation or binding; time to elimination of unbound compound via the renal system ([1]; i.v.): ≤ 24 h; tissue to background (TBR) ratio ([2]; control animals, FIG. 5c): low; unspecific tracer enhancement ([2]; control animals, FIG. 5c): without unspecific tracer enhancement
CC(C)C[C@@H]1NC(=O)[C@H](CC(=O)O)NC(=O)CNC(=O)[C@H](CCCNC(=N)N)NC(=O)[C@H](Cc2ccccc2)NC(=O)[C@H](CCCCNC(=O)CCCCCNC(=O)CCCCC[N+]2=C(/C=C/C=C/C=C3/N(C)c4ccc5ccccc5c4C3(C)C)C(C)(C)c3c2ccc2ccccc32)N(C)C(=O)[C@H]2CCCN2C(=O)[C@H](Cc2ccccc2)NC(=O)[C@H](C)NC1=O [OM1231, cyc(FRGDLAFp(NMe)K(Ahx-Cy5.5))] | 234 ± 33 |  |  | 27 ± 2 |  |  | strong fluorescence signal intensity on cell membranes | recognition of cellular integrin αvβ3 (OVMZ6 cells): did not recognize cellular integrin αvβ3; fluorescence signal intensity after blocking (HN cells; HN cells, unlabeled OM_1204 at 10-fold molar excess 1 h prior to OM_1231 (10 μM)): strong reduction in fluorescence signal intensity
cyc(R-betaAla-D-f-K(Ahx-Cy5.5)) [OM1224] |  |  |  |  |  |  | did not result in fluorescence signal intensity | 
